Assay results as given in the NIST ThermoML archive (doi:10.1021/je400056z).

Assay: xn = mol fraction of the nth substance listed
Conditions: Liquid, Vibrating tube method

CCCCCCC [heptane] + O=C=O
Conditions | mass density [kg/m3]
352.3 K, 20004 kPa, x2 = 0.7514 | 694.21
352.3 K, 21007 kPa, x2 = 0.7514 | 699.11
352.3 K, 22009 kPa, x2 = 0.7514 | 703.64
352.3 K, 22989 kPa, x2 = 0.7514 | 707.97
352.3 K, 24025 kPa, x2 = 0.7514 | 712.39
352.3 K, 24893 kPa, x2 = 0.7514 | 715.94
352.44 K, 4005 kPa, x2 = 0.0218 | 638.36
352.44 K, 5013 kPa, x2 = 0.0218 | 639.84
352.44 K, 6005 kPa, x2 = 0.0218 | 641.24
352.44 K, 7000 kPa, x2 = 0.0218 | 642.57
352.44 K, 8008 kPa, x2 = 0.0218 | 643.95
352.44 K, 9006 kPa, x2 = 0.0218 | 645.27
352.44 K, 10002 kPa, x2 = 0.0218 | 646.56
352.44 K, 11002 kPa, x2 = 0.0218 | 647.79
352.44 K, 12000 kPa, x2 = 0.0218 | 649.14
352.44 K, 13002 kPa, x2 = 0.0218 | 650.25
352.44 K, 13998 kPa, x2 = 0.0218 | 651.46
352.44 K, 15011 kPa, x2 = 0.0218 | 652.7
352.44 K, 16006 kPa, x2 = 0.0218 | 653.84
352.44 K, 17009 kPa, x2 = 0.0218 | 654.98
352.44 K, 17993 kPa, x2 = 0.0218 | 656.08
352.44 K, 18998 kPa, x2 = 0.0218 | 657.17
352.44 K, 20004 kPa, x2 = 0.0218 | 658.27
352.44 K, 21002 kPa, x2 = 0.0218 | 659.34
352.44 K, 22002 kPa, x2 = 0.0218 | 660.39
352.44 K, 23003 kPa, x2 = 0.0218 | 661.43
352.44 K, 23998 kPa, x2 = 0.0218 | 662.47
352.44 K, 25014 kPa, x2 = 0.0218 | 663.51
352.51 K, 9000 kPa, x2 = 0.5085 | 656.72
352.51 K, 10004 kPa, x2 = 0.5085 | 660.28
352.51 K, 11004 kPa, x2 = 0.5085 | 663.66
352.51 K, 12007 kPa, x2 = 0.5085 | 666.9
352.51 K, 13000 kPa, x2 = 0.5085 | 670.03
352.51 K, 14003 kPa, x2 = 0.5085 | 673
352.51 K, 15002 kPa, x2 = 0.5085 | 675.9
352.51 K, 15998 kPa, x2 = 0.5085 | 678.62
352.51 K, 17010 kPa, x2 = 0.5085 | 681.33
352.51 K, 18003 kPa, x2 = 0.5085 | 683.88
352.51 K, 19006 kPa, x2 = 0.5085 | 686.38
352.51 K, 20013 kPa, x2 = 0.5085 | 688.8
352.51 K, 21004 kPa, x2 = 0.5085 | 691.17
352.51 K, 22004 kPa, x2 = 0.5085 | 693.46
352.51 K, 23002 kPa, x2 = 0.5085 | 695.71
352.51 K, 24007 kPa, x2 = 0.5085 | 697.91
352.51 K, 25011 kPa, x2 = 0.5085 | 700.05
352.54 K, 15235 kPa, x2 = 0.9496 | 511.88
352.54 K, 15989 kPa, x2 = 0.9496 | 538.42
352.54 K, 17004 kPa, x2 = 0.9496 | 568.84
352.54 K, 18001 kPa, x2 = 0.9496 | 594.2
352.54 K, 18993 kPa, x2 = 0.9496 | 616.18
352.54 K, 20006 kPa, x2 = 0.9496 | 635.42
352.54 K, 20999 kPa, x2 = 0.9496 | 652.26
352.54 K, 22018 kPa, x2 = 0.9496 | 667.75
352.54 K, 22994 kPa, x2 = 0.9496 | 681.03
352.54 K, 24034 kPa, x2 = 0.9496 | 693.84
362.09 K, 12975 kPa, x2 = 0.7514 | 586.38
362.09 K, 14000 kPa, x2 = 0.7514 | 602.3
362.09 K, 14863 kPa, x2 = 0.7514 | 613.15
362.09 K, 16010 kPa, x2 = 0.7514 | 625.83
362.09 K, 17009 kPa, x2 = 0.7514 | 635.46
362.09 K, 18017 kPa, x2 = 0.7514 | 644.3
362.09 K, 19007 kPa, x2 = 0.7514 | 652.35
362.09 K, 20005 kPa, x2 = 0.7514 | 659.83
362.09 K, 21006 kPa, x2 = 0.7514 | 666.86
362.09 K, 22003 kPa, x2 = 0.7514 | 672.93
362.09 K, 22995 kPa, x2 = 0.7514 | 679.37
362.09 K, 24000 kPa, x2 = 0.7514 | 685.55
362.09 K, 24866 kPa, x2 = 0.7514 | 690.92
362.19 K, 7007 kPa, x2 = 0.3148 | 638.82
362.19 K, 8020 kPa, x2 = 0.3148 | 641.6
362.19 K, 9013 kPa, x2 = 0.3148 | 644.14
362.19 K, 10009 kPa, x2 = 0.3148 | 646.61
362.19 K, 11005 kPa, x2 = 0.3148 | 648.99
362.19 K, 12009 kPa, x2 = 0.3148 | 651.27
362.19 K, 12998 kPa, x2 = 0.3148 | 653.42
362.19 K, 13999 kPa, x2 = 0.3148 | 655.52
362.19 K, 15011 kPa, x2 = 0.3148 | 657.61
362.19 K, 16007 kPa, x2 = 0.3148 | 659.59
362.19 K, 17005 kPa, x2 = 0.3148 | 661.48
362.19 K, 18002 kPa, x2 = 0.3148 | 663.3
362.19 K, 18999 kPa, x2 = 0.3148 | 665.1
362.19 K, 20006 kPa, x2 = 0.3148 | 666.9
362.19 K, 21004 kPa, x2 = 0.3148 | 668.62
362.19 K, 22001 kPa, x2 = 0.3148 | 670.29
362.19 K, 23006 kPa, x2 = 0.3148 | 671.94
362.19 K, 24001 kPa, x2 = 0.3148 | 673.55
362.19 K, 25007 kPa, x2 = 0.3148 | 675.13
362.25 K, 17354 kPa, x2 = 0.9496 | 518.07
362.25 K, 17995 kPa, x2 = 0.9496 | 536.06
362.25 K, 19006 kPa, x2 = 0.9496 | 561.22
362.25 K, 20005 kPa, x2 = 0.9496 | 583.24
362.25 K, 21002 kPa, x2 = 0.9496 | 602.87
362.25 K, 21997 kPa, x2 = 0.9496 | 620.08
362.25 K, 22998 kPa, x2 = 0.9496 | 635.9
362.25 K, 24005 kPa, x2 = 0.9496 | 650.25
362.25 K, 24186 kPa, x2 = 0.9496 | 652.75
362.38 K, 4014 kPa, x2 = 0.0218 | 629.41
362.38 K, 5003 kPa, x2 = 0.0218 | 630.95
362.38 K, 6009 kPa, x2 = 0.0218 | 632.44
362.38 K, 7003 kPa, x2 = 0.0218 | 633.95
362.38 K, 8010 kPa, x2 = 0.0218 | 635.37
362.38 K, 9008 kPa, x2 = 0.0218 | 636.85
362.38 K, 9009 kPa, x2 = 0.5085 | 638.92
362.38 K, 10008 kPa, x2 = 0.5085 | 643.09
362.38 K, 10010 kPa, x2 = 0.0218 | 638.18
362.38 K, 10998 kPa, x2 = 0.5085 | 646.98
362.38 K, 11002 kPa, x2 = 0.0218 | 639.5
362.38 K, 12004 kPa, x2 = 0.0218 | 640.84
362.38 K, 12009 kPa, x2 = 0.5085 | 650.8
362.38 K, 13001 kPa, x2 = 0.0218 | 642.13
362.38 K, 13001 kPa, x2 = 0.5085 | 654.31
362.38 K, 14002 kPa, x2 = 0.5085 | 657.71
362.38 K, 14009 kPa, x2 = 0.0218 | 643.41
362.38 K, 15004 kPa, x2 = 0.0218 | 644.62
362.38 K, 15013 kPa, x2 = 0.5085 | 660.97
362.38 K, 16005 kPa, x2 = 0.0218 | 645.88
362.38 K, 16008 kPa, x2 = 0.5085 | 664.05
362.38 K, 16999 kPa, x2 = 0.0218 | 647.06
362.38 K, 17005 kPa, x2 = 0.5085 | 667.09
362.38 K, 18001 kPa, x2 = 0.0218 | 648.25
362.38 K, 18005 kPa, x2 = 0.5085 | 670.02
362.38 K, 18994 kPa, x2 = 0.0218 | 649.38
362.38 K, 19006 kPa, x2 = 0.5085 | 672.76
362.38 K, 19999 kPa, x2 = 0.0218 | 650.56
362.38 K, 20009 kPa, x2 = 0.5085 | 675.44
362.38 K, 21006 kPa, x2 = 0.0218 | 651.69
362.38 K, 21006 kPa, x2 = 0.5085 | 678.11
362.38 K, 22002 kPa, x2 = 0.0218 | 652.83
362.38 K, 22010 kPa, x2 = 0.5085 | 680.57
362.38 K, 23002 kPa, x2 = 0.5085 | 683.07
362.38 K, 23003 kPa, x2 = 0.0218 | 653.91
362.38 K, 23995 kPa, x2 = 0.0218 | 655.01
362.38 K, 23997 kPa, x2 = 0.5085 | 685.41
362.38 K, 25005 kPa, x2 = 0.0218 | 656.12
362.38 K, 25008 kPa, x2 = 0.5085 | 687.82
